Assays:
[1] = system: Tobacco Budworm 3rd Instar; experiment: Tobacco budworm secondary test, third-instar larvae on treated cotton cotyledons; assay type: in vivo, Heliothis virescens (Fabricus)
Description: Test formulations and procedures used for evaluation are as follows:
A. 100 mg of the test material is weighed, placed in a funnel over a 113 g narrow-mouth bottle, rinsed into the bottle with a 35 mL scoop of acetone, followed by a 35 mL scoop of water and another 35 mL scoop of acetone to yield 1000 ppm in 65% acetone. If the material is not soluble, it is broken up with a glass rod and used as a suspension.
B. This stock solution ("A") is used to make 300 ppm solutions or suspensions by pipetting 30 mL of "A" into a bottle containing 70 mL of 50% acetone to yield 300 ppm. Further dilutions in 50% acetone are made as required.
C. Tests requiring 10 ppm acetone solutions: 1 mL of "A" is pipetted into 99 mL of acetone to yield 10 ppm. Additional dilutions are made using 50% acetone as required.
Tobacco Budworm--Heliothis virescens (Fabricus)
Three cotton plants with just expanded cotyledons are dipped in 1000 ppm solution and placed in the hood to dry. When dry, each cotyledon is cut in half, and 10 are each placed in a 28 g plastic medicine cup containing a 1.25 cm dental wick saturated with water, and one third-instar budworm larva is added. The cup is capped and held for three days at 80° F., 50% relative humidity, after which mortality counts are made.

Southern Armyworm = experiment: Southern armyworm test, third-instar larvae on treated Sieva lima bean leaves; assay type: in vivo, Spodoptera eridania (Cramer); conditions: third-instar larvae
Outline: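 Sieva lima bean plants, primary leaves expanded to 1.91 cm, were dipped with agitation for three seconds in test material dissolved in 65% acetone, with further dilutions in acetone, then air-dried in a hood. A treated leaf was placed in a 9 cm petri dish on moist filter paper with 10 third-instar Spodoptera eridania larvae about 1 cm long. Dishes were covered and kept at 80° F. and 50% r.h. Mortality and feeding were assessed after two days.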

SMILES	Mortality Rating Tobacco Budworm 3rd Instar ([1]; 10 ppm)	Mortality Rating Tobacco Budworm 3rd Instar ([1]; 100 ppm)	Mortality Rating Tobacco Budworm 3rd Instar ([1]; 1000 ppm)	Mortality Rating Southern Armyworm (Southern Armyworm; 10 ppm)	Mortality Rating Southern Armyworm (Southern Armyworm; 100 ppm)	Mortality Rating Southern Armyworm (Southern Armyworm; 1000 ppm)	reduced feeding (R) Tobacco Budworm 3rd Instar ([1]; 100 ppm)	reduced feeding (R) Tobacco Budworm 3rd Instar ([1]; 1000 ppm)	reduced feeding (R) Tobacco Budworm 3rd Instar ([1]; 10 ppm)
CN(C)C(=O)N(N=Cc1ccc(SC(F)(F)C(F)F)cc1)C(=N)NN=Cc1ccc(SC(F)(F)C(F)F)cc1 [HCF2 CF2 S / HCF2 CF2 S / CH3 / CH3]	0 (No effect)	6 (66-75%)	6 (66-75%)	3 (36-45%)	9 (100%)	9 (100%)	–	–	–
CCOC(=O)N(N=Cc1ccc(OC(F)F)cc1)C(=N)NN=Cc1ccc(OC(F)F)cc1 [HCF2 O / HCF2 O / C2 H5]	–	–	2 (26-35%)	0 (No effect)	9 (100%)	9 (100%)	–	–	–
N=C(NN=Cc1ccc(SC(F)F)cc1)NN=Cc1ccc(SC(F)F)cc1 [HCF2 S / B]	0 (No effect)	0 (No effect)	0 (No effect)	–	9 (100%)	8 (86-99%)	R	R	–
CCCOC(=O)N(N=Cc1ccc(SC(F)F)cc1)C(=N)NN=Cc1ccc(OC(F)F)cc1 [HCF2 S / HCF2 O / -n-C3 H7]	–	–	0 (No effect)	–	0 (No effect)	9 (100%)	–	–	–
CN(C)C(=O)N(N=Cc1ccc(SC(F)F)cc1)C(=N)NN=Cc1ccc(SC(F)F)cc1 [HCF2 S / HCF2 S / CH3 / CH3]	–	–	0 (No effect)	0 (No effect)	9 (100%)	9 (100%)	–	–	–
N=C(NN=Cc1ccc(SC(F)F)cc1)N(N=Cc1ccc(SC(F)F)cc1)C(=O)OCCCl [HCF2 S / HCF2 S / ClCH2 CH2]	–	–	0 (No effect)	–	0 (No effect)	9 (100%)	–	R	–
CCOC(=O)N(N=Cc1ccc(SC(F)F)cc1)C(=N)NN=Cc1ccc(SC(F)F)cc1 [HCF2 S / HCF2 s / C2 H5]	–	–	0 (No effect)	–	0 (No effect)	9 (100%)	–	R	–
N=C(NN=Cc1ccc(SC(F)F)cc1)NN=Cc1ccc(SC(F)F)cc1 [HCF2 S / S]	–	–	0 (No effect)	–	9 (100%)	9 (100%)	–	R	–
N=C(NN=Cc1ccc(OC(F)(F)C(F)Cl)cc1)NN=Cc1ccc(OC(F)(F)C(F)Cl)cc1 (stereo not drawn) [drawing 43 / B]	0 (No effect)	0 (No effect)	9 (100%)	–	9 (100%)	9 (100%)	–	–	–
N=C(NN=Cc1ccc(OC(F)(F)C(F)Cl)cc1)NN=Cc1ccc(OC(F)(F)C(F)Cl)cc1 (stereo not drawn) [drawing 44 / S]	0 (No effect)	0 (No effect)	9 (100%)	6 (66-75%)	9 (100%)	9 (100%)	R	R	R
CC1(C)Oc2ccc(C=NNC(=N)NN=Cc3ccc4c(c3)OC(C)(C)O4)cc2O1 [drawing 45 / S]	–	0 (No effect)	0 (No effect)	6 (66-75%)	–	9 (100%)	–	R	–
N=C(NN=Cc1ccc2c(c1)OC(F)(F)O2)NN=Cc1ccc2c(c1)OC(F)(F)O2 [drawing 46 / S]	–	0 (No effect)	0 (No effect)	4 (46-55%)	0 (No effect)	9 (100%)	R	R	–
N=C(NN=Cc1ccc2c(c1)OC(F)C(F)(F)O2)NN=Cc1ccc2c(c1)OC(F)C(F)(F)O2 (stereo not drawn) [drawing 47 / B]	–	0 (No effect)	0 (No effect)	0 (No effect)	–	9 (100%)	R	R	–
N=C(NN=Cc1ccc2c(c1)OC(F)C(F)(F)O2)NN=Cc1ccc2c(c1)OC(F)C(F)(F)O2 (stereo not drawn) [drawing 48 / S]	–	–	0 (No effect)	–	0 (No effect)	9 (100%)	–	R	–
CC(C)OC(=O)N(N=Cc1ccc(OC(F)(F)C(F)Cl)cc1)C(=N)NN=Cc1ccc(OC(F)(F)C(F)Cl)cc1 (stereo not drawn) [drawing 50 / drawing 51 / -i-C3 H7]	–	–	0 (No effect)	0 (No effect)	9 (100%)	9 (100%)	–	R	–
CC(C)OC(=O)N(N=Cc1ccc2c(c1)OC(F)C(F)(F)O2)C(=N)NN=Cc1ccc2c(c1)OC(F)C(F)(F)O2 (stereo not drawn) [drawing 52 / drawing 53 / -i-C3 H7]	–	0 (No effect)	0 (No effect)	0 (No effect)	5 (56-65%)	8 (86-99%)	–	R	–
N=C(NN=Cc1ccc(OC(F)(F)C(F)Cl)cc1)N(N=Cc1ccc(OC(F)(F)C(F)Cl)cc1)C(=O)OCCCl (stereo not drawn) [drawing 57 / drawing 58 / ClCH2 CH2]	–	–	0 (No effect)	–	9 (100%)	9 (100%)	–	R	–
